According to publication PMC10269622, “Blapstin, a Diapause-Specific Peptide-Like Peptide from the Chinese Medicinal Beetle Blaps rhynchopetera, Has Antifungal Function” (Microbiology Spectrum, 2023):
Bridge positions count the residues as written; N and C are the ends. Ends that are not written are not given here.

Legend:
[1] = test system: Escherichia coli ATCC 8739; assay: MIC, broth double dilution; type: cell-based; conditions: 96-well plate, 37°C, 16 h, absorbance at 600 nm, mean of three independent experiments, ND = no bacteriostatic activity
Protocol: (§1) The standard strain of C. albicans (ATCC 10231), three clinically isolated antibiotic-resistant strains (C. albicans 0065, C. albicans 0063, and C. albicans 6), E. coli (ATCC 8739), and S. aureus (ATCC 6538) were obtained from Kunming Medical University. T. rubrum was purchased from BeNa Culture Collection (BNCC, CAS no. 340195). Different strains of C. albicans, E. coli, and S. aureus were cultured with shaking at 37°C in YM medium and Luria-Bertani (LB) medium. T. rubrum was cultured at 28°C in potato dextrose agar (PDA) medium according to the manufacturer’s instructions.
(§2) According to CLSI protocols, the MIC is determined as a point where there is “zero detectable growth,” The MIC of blapstin against different fungal strains was determined by use of the double dilution method, namely, broth dilution determination. In brief, the different strains were grown in their corresponding media at 28°C or 37°C until they reached the exponential growth phase. Colistin E and fluconazole were used as positive controls. Blapstin was diluted to various concentrations in sterile saline: 100 μL of sterile saline was added to the second well of a sterile 96-well plate, and then 100 μL of blapstin was added to the first and second wells. The solution from the second well was double-diluted with sterile saline until the 11th well, from which 100 μL was removed. In the 12th well, no blapstin was added, and sterile saline was used as a negative control. Afterward, 100 μL of the diluted microbial solution was added to each well, followed by incubation at 37°C for 16 h. To assess the antifungal activity of blapstin against the T. rubrum strain, the spore germination rates were first determined microscopically with a hemocytometer. T. rubrum was diluted with normal saline to 1 × 10^5 CFU/mL and then incubated with various concentrations of blapstin at 28°C for 16 h. The absorbance at 600 nm was measured by a microplate reader (Epoch Etock; Biotek, USA) to estimate the inhibition of bacteria and fungi by blapstin.

[2] = test system: Staphylococcus aureus ATCC 6538; assay: MIC, broth double dilution; type: cell-based; conditions: 96-well plate, 37°C, 16 h, absorbance at 600 nm, mean of three independent experiments, ND = no bacteriostatic activity
Protocol: as §1, §2

C. albicans [3] = assay: Thermostability of antifungal activity (paper disk assay); type: physicochemical, Candida albicans; conditions: for Antifungal activity after heating: 20 μL of 225 μM, then paper disk assay on YM medium, 37°C, 18 h
Protocol: (i) Effects of temperature. In the test of thermostability of antifungal activity, (20 μL(225 μM) of blapstin was heated at different temperatures (20°C, 40°C, 60°C, 80°C, 90°C, and 100°C) for 30 min and cooled down at 4°C ([63]). Colistin E was used as the positive control, and 1.5% NaCl was used as the negative control. Then, these samples were transferred to the paper disks in the YM solid medium with C. albicans and incubated at 37°C for 18 h for the assay of antifungal activity.

C. albicans [4] = assay: pH stability of antifungal activity (paper disk assay); type: physicochemical, Candida albicans; conditions: 30 min at room temperature, then paper disk assay, 37°C, 18 h
Protocol: (ii) Effects of pH. In the test of pH stability of antifungal activity, 50 mg of blapstin was dissolved in 25 mL of solutions with different pH values (pH 3 to 5, 0.1 mol HCl; pH 7 to 9, 1 mmol NaOH), and the peptide solutions of different pH values were incubated at room temperature for 30 min ([63]). Colistin E was used as the positive control, and 1.5% NaCl was used as the negative control. Then, these samples were transferred to the paper disks in the YM solid medium with C. albicans and incubated at 37°C for 18 h for the assay of antifungal activity.

chymotrypsin = assay: Effect of protease on antifungal activity; type: in vitro ADME; conditions: 0.5 μL of 10 mg/mL chymotrypsin with 20 μL of 225 μM peptide, 37°C, 1 h; read-out paper disk assay against C. albicans
Protocol: (§3) (iii) Effects of protease. In terms of the influence of protease on the antifungal activity of blapstin, trypsin and chymotrypsin were selected for the experiment, and 0.5 μL of a 10-mg/mL concentration of proteases (including trypsin and chymotrypsin) and (20 μL(225 μM) of blapstin were mixed and incubated at 37°C for 1 h ([64]). Colistin E was used as the positive control, and 1.5% NaCl was used as the negative control. Then, these samples were transferred to the paper disks in the YM solid medium with C. albicans and incubated at 37°C for 18 h for the assay of antifungal activity.

trypsin = assay: Effect of protease on antifungal activity; type: in vitro ADME; conditions: 0.5 μL of 10 mg/mL trypsin with 20 μL of 225 μM peptide, 37°C, 1 h; read-out paper disk assay against C. albicans
Protocol: as §3

C. albicans ATCC 10231 = assay: Cryo-SEM membrane morphology; type: cell-based, Candida albicans; conditions: 1× MIC, 10 μL on filter paper disk, YM solid medium
Protocol: Cryo-SEM was used to examine membrane morphology as previously described with minor modifications ([65]). C. albicans ATCC 10231 was cultured in a nutrient YM solid medium. Sterilized 5-mm-diameter filter paper disks were placed on the surface of the medium, and 10 μL (1× MIC) of blapstin was added to the disks. Sterile 0.9% NaCl was used as the blank control. Fungi treated with blapstin were observed using cryo-SEM with a Quorum pp3010t system (Sigma 300; Carl Zeiss, Germany).

[5] = test system: established biofilms of C. albicans ATCC 10231; assay: Biofilm eradication assay (crystal violet); type: cell-based, Candida albicans; conditions: 24 h preformed biofilm, 0.5× to 8× MIC, 37°C, absorbance at 600 nm
Protocol: First, 100 μL of C. albicans ATCC 10231 suspension (1 × 10^6 CFU/mL) was added to each well of a sterile 96-well plate. The plate was incubated at 37°C for 24 h to make the biofilm adhere to the walls and washed three times with PBS. Next, 100 μL of serial dilutions of blapstin (0.5×, 1×, 2×, 4×, and 8× MIC) prepared using YM medium was added to the plate, followed by incubation at 37°C for 24 h. Fluconazole at 10 μM and clotrimazole at 10 μΜ were used as a positive control, and sterile 0.9% NaCl was used as a negative control. After incubation, the liquid in the plate was discarded and washed three times with PBS, followed by the addition of 1% crystal violet solution to each well and incubation at room temperature for 10 min. Finally, the plate was washed three times with PBS, and 100 μL of 95% ethanol was added per well. The percentage of biofilm removal was estimated by measuring the absorbance at 600 nm.

“VRVGPCDQVCSRTNPEKDECCRAHGHSGHSSCYGGRMNCYG (disulfide 6-21, 10-32, 20-39 (inferred)) [Blapstin]” was tested, and the MIC [1] was “did not affect”, the MIC [2] was “did not affect” and the “Antifungal activity after heating” value (C. albicans [3]; 20°C to 90°C for 30 min) was “full antifungal activity was retained”. For the same sequence, the “Antifungal activity after heating” value (C. albicans [3]; 100°C for 30 min) was “slightly reduced”, the “Thermostable up to” value (C. albicans [3]; heated 30 min, read-out antifungal activity toward C. albicans) was “up to 90 °C” and the “Antifungal activity after pH exposure” value (C. albicans [4]; pH 3 and pH 5 (HCl)) was “full antifungal activity was retained”. The “Antifungal activity after pH exposure” value (C. albicans [4]; pH higher than 7 (NaOH, up to pH 9)) was “reduced gradually”, the “Sensitivity of antifungal activity to protease” value (chymotrypsin) was “insensitive” and the “Sensitivity of antifungal activity to protease” value (trypsin) was “insensitive”. The “Membrane morphology under cryo-SEM” value (C. albicans ATCC 10231) was “membrane shrinkage and disruption of the plasma membrane” and the “Eradication of established biofilms of C. albicans” value [5] was “disrupted established biofilms”.
